Measurements from ChEMBL document CHEMBL1126963, “Acid unit modifications of 1,2,4,5-substituted hydroxyacetophenones and the effect on in vitro and in vivo LTB4 receptor antagonism” (Bioorg Med Chem Lett, 1993).

Columns and labels:
Format in all cases: functional
Homo sapiens = species on record: Homo sapiens; assay: Antagonism of LTB4 receptor induced CD11b/CD18 adhesion protein up-regulation in human neutrophil
Cavia porcellus [1] = assay: Potency was evaluated in vivo in a guinea pig model of LTB4-induced airway obstruction upon intravenous administration
Cavia porcellus [2] = assay: Potency was evaluated in vivo in a guinea pig model of LTB4-induced airway obstruction upon oral administration

SMILES | IC50 (Homo sapiens) [µM] | ED50 (Cavia porcellus [1]) [mg/kg] | ED50 (Cavia porcellus [2]) [mg/kg]
CCCc1c(OCCCOc2cc(O)c(C(C)=O)cc2CC)cccc1OC(C)C(=O)O (stereo not drawn) | 3.27 |  | 
CCCc1c(OCCCOc2cc(O)c(C(C)=O)cc2CC)cccc1OCC(=O)O | 4.39 |  | 
CCc1cc(C(C)=O)c(O)cc1OCCCCCC(C)(C)c1nn[nH]n1 [LY-255283] |  | 2.8 | 11

More lines, main results first:

IC50 (Homo sapiens) [µM] | SMILES | ED50 (Cavia porcellus [1]) [mg/kg] | ED50 (Cavia porcellus [2]) [mg/kg]
1.94 | CCCc1c(OCCCOc2cc(O)c(C(C)=O)cc2CC)cccc1OC(CC)C(=O)O (stereo not drawn) |  | 
1.6 | CCCc1c(OCCCOc2cc(O)c(C(C)=O)cc2CC)ccc2c1OC(C(=O)[O-])CC2.[Na+] (stereo not drawn) | 0.23 | 0.5
